Results as given in PubChem BioAssay AID1845207 (Molecular Pharmacology Branch, DTP, NCI, 2023).

Test system: NCI-H1876 tumor spheroid viability
Experiment: Anticancer human tumor NCI-H1876 cell line growth inhibition;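 note: spheroids exposed to compounds for seven days before the viability read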;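 for viability, T/C: percent of DMSO vehicle control viability so 100% = vehicle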
Conditions: spheroids with HUVEC and MSC; for IC50: curve of first compound; for viability, T/C: stronger effect = lower value
Text: Multicellular complex tumor spheroid response to DNA repair inhibitors in combination with DNA-damaging drugs
This study explores the anticancer activities of DNA-damaging drugs and inhibitors of DNA damage repair, both as single agents and in combinations. Complex tumor spheroids comprised of malignant cells, endothelial cells and mesenchymal stem cells served as an in vitro model for human solid tumors. This model system incorporates physiologically relevant features and patient-derived or established malignant cell lines with clinically relevant genetic alterations from many tumor types. Twenty-six patient-derived or established malignant cell lines were evaluated representing sarcoma, melanoma, small cell lung cancer (SCLC), non-small cell lung cancer (NSCLC), as well as bladder, ovarian and pancreatic cancers. The concentration ranges selected for each drug and investigational agent were based upon clinically achievable concentrations if the clinical Cmax of the agent was known.
Compounds. The drugs and compounds olaparib (NSC753686), talazoparib (NSC767125), berzosertib (NSC777718), elimusertib (NSC800525), nedisertib (NSC802822), VX-984 (NSC792969), AZD-1390 (NSC803789), temozolomide (NSC362856), topotecan (NSC609699), trabectedin (NSC813783), staurosporine (NSC755774), and gemcitabine (NSC613327) were obtained from the National Cancer Institute (NCI) Developmental Therapeutics Program Chemical Repository. The FDA-approved anticancer drug set is available from the Developmental Therapeutics Program at https://dtp.cancer.gov/organization/dscb/obtaining/available_plates.htm. […] The stock solutions were prepared in dimethyl sulfoxide (DMSO, Sigma-Aldrich, St. Louis, MO, cat. D2650) at 400-fold the tested concentration and stored at -70 degrees C. Prior to their use, the stock solutions were diluted in fresh medium and the final DMSO concentration in the assay was 0.25% (v/v). All drugs and investigational agents were tested over a range starting from a high concentration at or near the clinical Cmax and decreasing in half-log increments. If the clinical Cmax for an agent had not been determined, the highest concentration tested was 10 microM.
Cell Lines. The patient-derived cancer cell (PDC) lines: 156681-154-R-J1-PDC, 283228-195-R-J1-PDC, 287954-098-R-J1-PDC, 292921-168-R-J2-PDC, 349418-098-R-PDC, 425362-245-T-J1-PDC, 556581-035-R-J1-PDC, and BL0293-F563-PDC were received from the NCI Patient-Derived Models Repository (PDMR, https://pdmr.cancer.gov). The established cell lines HS-SY-2 (RRID:CVCL_8719), MPNST, and SYO-1 (RRID:CVCL_7146) were obtained from the Sloan Kettering Institute. The alveolar soft parts sarcoma cell line ASPS-1 (RRID:CVCL_S738) was established at the NCI and grown from internal seed stocks. The following established cell lines were purchased from the American Type Culture Collection (ATCC, Manassas, VA): G-401 (ATCC, cat. CRL-1441, RRID:CVCL_0270), SW982 (ATCC, cat. HTB-93, RRID:CVCL_1734), VA-ES-BJ (ATCC, cat. CRL-2138, RRID:CVCL_1785), NCI-H719 (ATCC, cat. CRL-5837, RRID:CVCL_1582), NCI-H196 (ATCC, cat. CRL-5823, RRID:CVCL_1509), NCI-H841 (ATCC, cat. CRL-5845, RRID:CVCL_1595), NCI-H1618 (ATCC, cat. CRL-5879, RRID:CVCL_1480), NCI-H1876 (ATCC, cat. CRL-5902, RRID:CVCL_1503), DMS 114 (ATCC, cat. CRL-2066; RRID:CVCL_1174), NCI-H211 (ATCC, cat. CRL-5824; RRID:CVCL_1529), and SW 1271 (ATCC, cat. CRL-2177, RRID:CVCL_1716). The small cell lung cancer cell line COR-L88 was purchased from Sigma-Aldrich (cat. 92031917-1VL, RRID:CVCL_1141). The non-small cell lung cancer cell lines NCI-H226 (RRID:CVCL_1544) and NCI-H322M (RRID:CVCL_1557) were established at the NCI and grown from internal seed stocks. Pooled donor human umbilical vein endothelial cells (HUVEC, Lonza, cat. CC-2519) and human mesenchymal stem cells (hMSC, Lonza, cat. PT-2501) were purchased from Lonza (Walkersville, MD).
Cell Culture. All cells were maintained in an incubator at 37 degrees C and 5% CO2 with 95% humidity. […]

`CC(C)n1c(=O)n(C)c2cnc3cc(F)c(-c4ccc(OCCCN5CCCCC5)nc4)cc3c21` + CC[C@@]1(O)C(=O)OCc2c1cc1n(c2=O)Cc2cc3c(CN(C)C)c(O)ccc3nc2-1 was tested, and the IC50 (second compound 0.003 µM) was < 31.6 nM, the IC50 (second compound 0.00949 µM) was < 31.6 nM and the IC50 (second compound 0.03 µM) was < 31.6 nM. For the same compound, the IC50 (second compound 0.0949 µM) was < 31.6 nM, the IC50 (second compound 0.3 µM) was < 31.6 nM and the viability, T/C (second compound 0.003 µM, first compound 0.0316 µM) was 25.1%. It also gave a viability, T/C (second compound 0.003 µM, first compound 0.1 µM) of 25.5%, a viability, T/C (second compound 0.003 µM, first compound 0.316 µM) of 34.6% and a viability, T/C (second compound 0.003 µM, first compound 1 µM) of 45.5%. It also gave a viability, T/C (second compound 0.003 µM, first compound 3.16 µM) of 44.1%, a viability, T/C (second compound 0.003 µM, first compound 10 µM) of 28.1% and a viability, T/C (second compound 0.00949 µM, first compound 0.0316 µM) of 5.02%. For the same compound, the viability, T/C (second compound 0.00949 µM, first compound 0.1 µM) was 4.95%, the viability, T/C (second compound 0.00949 µM, first compound 0.316 µM) was 5.93% and the viability, T/C (second compound 0.00949 µM, first compound 1 µM) was 7.51%. The viability, T/C (second compound 0.00949 µM, first compound 3.16 µM) was 10.2%, the viability, T/C (second compound 0.00949 µM, first compound 10 µM) was 11.6% and the viability, T/C (second compound 0.03 µM, first compound 0.0316 µM) was 2.64%. It also gave a viability, T/C (second compound 0.03 µM, first compound 0.1 µM) of 2.9%, a viability, T/C (second compound 0.03 µM, first compound 0.316 µM) of 2.81% and a viability, T/C (second compound 0.03 µM, first compound 1 µM) of 3.34%. It also gave a viability, T/C (second compound 0.03 µM, first compound 3.16 µM) of 3.91%, a viability, T/C (second compound 0.03 µM, first compound 10 µM) of 4.32% and a viability, T/C (second compound 0.0949 µM, first compound 0.0316 µM) of 2.03%. It also gave a viability, T/C (second compound 0.0949 µM, first compound 0.1 µM) of 2.07%, a viability, T/C (second compound 0.0949 µM, first compound 0.316 µM) of 2.33% and a viability, T/C (second compound 0.0949 µM, first compound 1 µM) of 2.86%. For the same compound, the viability, T/C (second compound 0.0949 µM, first compound 3.16 µM) was 2.99%, the viability, T/C (second compound 0.0949 µM, first compound 10 µM) was 3.42% and the viability, T/C (second compound 0.3 µM, first compound 0.0316 µM) was 1.97%. The viability, T/C (second compound 0.3 µM, first compound 0.1 µM) was 2.19%, the viability, T/C (second compound 0.3 µM, first compound 0.316 µM) was 1.74% and the viability, T/C (second compound 0.3 µM, first compound 1 µM) was 2.16%. It also gave a viability, T/C (second compound 0.3 µM, first compound 3.16 µM) of 2.86% and a viability, T/C (second compound 0.3 µM, first compound 10 µM) of 2.71%.
